Patent US9447028B2, “Therapeutic aryl-amido-aryl compounds and their use” (King's College London, priority 2009, dated 2016)

Tests used:
Aβ40 = Aβ40 level in cortex of Tg2576 mice after oral agonist (sandwich ELISA); format: in vivo; settings: chow with 1 mg/kg agonist for 3 months, six months of age; control = 100
Protocol: (§1) Twenty seven 3 month old Tg2576 mice (Taconic™) were split into 3 groups of 9. One group was fed normal chow, the other groups were fed with 1 mg/Kg RARα agonist, either AM580 or BMS194753. Animals were analysed at 6 and 9 months of age.
(§2) Animals were perfused with PBS. The brain was dissected and one hemisegment was fixed in 4% PFA overnight, 20% sucrose for 3 days, embedded in OCT compound and stored frozen. The cortex was removed form the other hemisegment and the protein extracted.
(§3) To measure Aβ40 and Aβ42 levels, a sandwich ELISA assay kit (Biosource™) was used according to the manufactures instructions. A 1:5000 of the guanidine-soluble extracts were made with TBS containing 5% BSA and 1×protease inhibitor (Calbiochem™) and centrifuged at 16000×g for 20 minutes at 4° C. Samples were diluted 1:10000 in sample diluent provided by the manufacturer.
(§4) These are Tg2576 mice, which over-express the Swedish mutation of APP. These mice overproduce Aβ40 and Aβ42. Three month old mice were fed for 3 months with normal chow or chow supplemented with 1 mg/kg of agonist. At six months of age, there is a dramatic decrease in both Aβ40 and Aβ42 levels in the mice fed with the RARα agonist, as compared to the normal fed mice.

[1] = system: disintegrin-metalloproteinases 10 (ADAM10); experiment: ADAM10 expression in cultured cortical neurons; format: cell-based, mouse; design: dose or concentration left out as unconfirmed; settings: Agonist; analysed 3 days later (Table 5, introduced as ADAM10 data)
Protocol: (§5) Neuronal cultures were prepared from embryonic E19 mouse embryos. Fetal brain cortices were dissected and freed from meninges. […] Cortical cells (1×10^5) were plated onto poly-L-lysine (10 μg/mL) coated glass coverslips in 24-well tissue culture plates. They were cultured in Neurobasal medium containing B27 supplement, 2 mM glutamine, 20 μg/mL penicillin stepromycin, and 0.25% glucose. They were maintained for 7 days before been treated. For each treatment, 3 coverslips were used and the experiment was repeated 3 times.
(§6) After 3 days of culture, media was removed and Hoechst 33342 (10 μM) and propidium iodide (10 μM) in PBS was added to the wells for 15 minutes. Only neurons positive for Hoechst 33342 but negative for propidium iodide were counted as surviving neurons. […] The antibodies used were α chAT (1:200, Chemicon™), α APP (1:100, Chemicon™) and α ADAM10 (1:200, Chemicon™). Secondary antibody used was anti-rabbit Cy3 or Cy5 conjugated (Jackson™, used at 1:1000). The nuclear marker DAPI (1 μg/mL) was used to stain all cells. […]

[2] = system: amyloid precursor protein (APP); experiment: APP expression in cultured cortical neurons; format: cell-based, mouse; design: dose or concentration left out as unconfirmed; settings: Agonist; analysed 3 days later (Table 4)
Protocol: as §5, §6

cortical neurons = experiment: Survival of cortical neurons in the presence of 10 μM Aβ42; format: cell-based, mouse; settings: for % Surviving Neurons: 10 μM Aβ42, 3 days; for Neuronal survival in the presence of Aβ42 (in words): 10 μM Aβ42, 0.01-1 μM agonist, compared to control cultures treated only with Aβ42
Protocol: as §5
After 3 days of culture, media was removed and Hoechst 33342 (10 μM) and propidium iodide (10 μM) in PBS was added to the wells for 15 minutes. Only neurons positive for Hoechst 33342 but negative for propidium iodide were counted as surviving neurons. In addition, cortical cultures were treated with agonist alone (0.1 μM) and assayed for chAT, APP, and ADAM10. The antibodies used were α chAT (1:200, Chemicon™), α APP (1:100, Chemicon™) and α ADAM10 (1:200, Chemicon™). Secondary antibody used was anti-rabbit Cy3 or Cy5 conjugated (Jackson™, used at 1:1000). The nuclear marker DAPI (1 μg/mL) was used to stain all cells.
Cortical cultures were treated after 7 days with 10 μM Aβ42 and supplemented with 0.01-1 μM of agonist. After 3 days, the number of surviving cells was determined. […] As atRA is a weak pan-agonist of all the RARs, it was decided to identify the specific receptor involved in this process using RAR specific agonists.

Aβ42 = Aβ42 level in cortex of Tg2576 mice after oral agonist (sandwich ELISA); format: in vivo; settings: chow with 1 mg/kg agonist for 3 months, six months of age; control = 100
Protocol: as §1, §2, §3, §4

[3] = system: choline acetyltransferase (chAT); experiment: chAT expression in cultured cortical neurons; format: cell-based, mouse; design: dose or concentration left out as unconfirmed; settings: Agonist; analysed 3 days later
Protocol: as §5, §6

RARβ = target: T1, RARβ (Homo sapiens, UniProt P10826); experiment: Transactivation assay for RAR beta (gal4-RAR fusion, luciferase reporter, COS-7 cells); format: cell-based; settings: ratio of test compound EC50 to that of atRA; inactive = no agonist action at the highest concentration tested
T1 construct: gal4 (fusion partner); expressed in transfected cells; host or cells: COS-7
T1 sequence (P10826 183-417 limits assumed): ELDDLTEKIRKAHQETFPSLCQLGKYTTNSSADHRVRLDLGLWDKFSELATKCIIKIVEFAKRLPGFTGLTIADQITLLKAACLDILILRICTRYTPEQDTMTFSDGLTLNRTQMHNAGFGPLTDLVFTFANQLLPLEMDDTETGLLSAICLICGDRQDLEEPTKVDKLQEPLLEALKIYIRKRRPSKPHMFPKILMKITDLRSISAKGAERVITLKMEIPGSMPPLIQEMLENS
Method in brief: (§7)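 COS-7 cells co-transfected with gal4–RAR ligand-binding-domain fusion and pFR-luc reporter, then treated with compound in phenol-red-free DMEM (1% DMSO) for about one day. Luciferase read after lysis with BrightGlo; EC50 values from replicate experiments given as a ratio of means.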

RARα = target: T2, RARα (Homo sapiens, UniProt P10276); experiment: Transactivation assay for RAR alpha (gal4-RAR fusion, luciferase reporter, COS-7 cells); format: cell-based
T2 construct: gal4 (fusion partner); expressed in transfected cells; host or cells: COS-7
T2 sequence (P10276 183-417 limits assumed): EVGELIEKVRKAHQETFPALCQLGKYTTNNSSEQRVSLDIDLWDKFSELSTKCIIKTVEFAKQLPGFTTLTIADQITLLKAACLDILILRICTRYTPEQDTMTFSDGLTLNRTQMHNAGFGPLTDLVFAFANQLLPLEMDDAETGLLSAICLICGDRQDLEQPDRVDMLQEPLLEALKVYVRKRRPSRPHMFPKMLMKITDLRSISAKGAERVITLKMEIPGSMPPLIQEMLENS
Method in brief: as §7

RARγ = target: T3, RARγ (Homo sapiens, UniProt P13631); experiment: Transactivation assay for RAR gamma (gal4-RAR fusion, luciferase reporter, COS-7 cells); format: cell-based; settings: ratio of test compound EC50 to that of atRA; inactive = no agonist action at the highest concentration tested
T3 construct: gal4 (fusion partner); expressed in transfected cells; host or cells: COS-7
T3 sequence (P13631 185-419 limits assumed): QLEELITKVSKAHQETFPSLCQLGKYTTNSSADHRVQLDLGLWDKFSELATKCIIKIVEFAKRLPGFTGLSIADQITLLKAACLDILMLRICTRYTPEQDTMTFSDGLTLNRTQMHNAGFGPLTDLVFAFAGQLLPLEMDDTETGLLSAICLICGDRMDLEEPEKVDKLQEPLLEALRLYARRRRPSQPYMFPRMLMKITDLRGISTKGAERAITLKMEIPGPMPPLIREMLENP
Method in brief: as §7

| RARβ activity ratio (RARβ) | RARα/RARβ ratio (*) (RARα; fold-selectivity for RARα over RARβ) | RARα activity ratio (RARα; ratio of test compound EC50 to that of atRA on the same plate) | RARγ activity ratio (RARγ) | SMILES | % of Aβ40 (Aβ40) | Number of APP Neurons [1] | Number of APP Neurons [2] | % Surviving Neurons (cortical neurons; 0.01 μM agonist) | % Surviving Neurons (cortical neurons; 0.1 μM agonist) | % Surviving Neurons (cortical neurons; 1.0 μM agonist) | Neuronal survival in the presence of Aβ42 (in words) (cortical neurons) | % of Aβ42 (Aβ42) | Number of chAT Neurons [3] |
| --- | --- | --- | --- | --- | --- | --- | --- | --- | --- | --- | --- | --- | --- |
|  |  |  |  | CC1(C)CCC(C)(C)c2cc(C(=O)Nc3ccc(C(=O)O)cc3)ccc21 [AM 580] | 4 ± 1% | 19 ± 3 | 11 ± 2 | 52 ± 7% | 70 ± 6% | 99 ± 9% | notably better | 8 ± 1% |  |
|  |  |  |  | CC1(C)C(=O)C(C)(C)c2cc(C(=O)Nc3ccc(C(=O)O)cc3)ccc21 [BMS 194753] | 3 ± 0.5% | 20 ± 2 | 10 ± 2 | 57 ± 7% | 69 ± 3% | 88 ± 4% | notably better | 7 ± 1% | 37 ± 3 |
|  |  |  |  | O=C(O)c1ccc2cc(-c3ccc(O)c(C45CC6CC(CC(C6)C4)C5)c3)ccc2c1 [CD 437] |  | 2 ± 0.75 | 22 ± 3 | 53 ± 3% | 30 ± 11% | 26 ± 10% | notably worse |  | 2 ± 1 |
|  |  |  |  | COc1ccc(-c2ccc3cc(C(=O)O)ccc3c2)cc1C1(C)CCCCC1 [CD 2019] |  | 1 ± 0.5 | 23 ± 2 | 52 ± 3% | 58 ± 5% | 60 ± 5% | notably worse |  | 8 ± 1 |
| 1 | 1 | 1 | 1 | CC1=C(/C=C/C(C)=C/C=C/C(C)=C/C(=O)O)C(C)(C)CCC1 [atRA, all trans retinoic acid] |  | 11 ± 1.5 | 15 ± 2 | 53 ± 4% | 69 ± 4% | 82 ± 4% | increase in cell survival with increasing dose |  | 16 ± 2 |
